Reference: patent US20120264735A1 (priority 2009, published 2012)

Biological target: T1, c-Met kinase (recombinant c-Met) (Homo sapiens, UniProt P08581)
T1 construct: 0.27 nM recombinant c-Met
Test: In vitro kinase assay I (homogeneous time-resolved fluorescence tyrosine kinase assay)
Type: biochemical
In short: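 Biotinylated peptide (0.5 μM) phosphorylated by 0.2 nM recombinant c-Met with 50 μM MgATP, 60 min at room temperature, pH 7.4, 5% DMSO. EDTA stop; HTRF read with Eu-anti-phosphotyrosine antibody and streptavidin-APC. IC50 from 4-parameter logistic fit.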

T1 sequence (P08581 25-1390): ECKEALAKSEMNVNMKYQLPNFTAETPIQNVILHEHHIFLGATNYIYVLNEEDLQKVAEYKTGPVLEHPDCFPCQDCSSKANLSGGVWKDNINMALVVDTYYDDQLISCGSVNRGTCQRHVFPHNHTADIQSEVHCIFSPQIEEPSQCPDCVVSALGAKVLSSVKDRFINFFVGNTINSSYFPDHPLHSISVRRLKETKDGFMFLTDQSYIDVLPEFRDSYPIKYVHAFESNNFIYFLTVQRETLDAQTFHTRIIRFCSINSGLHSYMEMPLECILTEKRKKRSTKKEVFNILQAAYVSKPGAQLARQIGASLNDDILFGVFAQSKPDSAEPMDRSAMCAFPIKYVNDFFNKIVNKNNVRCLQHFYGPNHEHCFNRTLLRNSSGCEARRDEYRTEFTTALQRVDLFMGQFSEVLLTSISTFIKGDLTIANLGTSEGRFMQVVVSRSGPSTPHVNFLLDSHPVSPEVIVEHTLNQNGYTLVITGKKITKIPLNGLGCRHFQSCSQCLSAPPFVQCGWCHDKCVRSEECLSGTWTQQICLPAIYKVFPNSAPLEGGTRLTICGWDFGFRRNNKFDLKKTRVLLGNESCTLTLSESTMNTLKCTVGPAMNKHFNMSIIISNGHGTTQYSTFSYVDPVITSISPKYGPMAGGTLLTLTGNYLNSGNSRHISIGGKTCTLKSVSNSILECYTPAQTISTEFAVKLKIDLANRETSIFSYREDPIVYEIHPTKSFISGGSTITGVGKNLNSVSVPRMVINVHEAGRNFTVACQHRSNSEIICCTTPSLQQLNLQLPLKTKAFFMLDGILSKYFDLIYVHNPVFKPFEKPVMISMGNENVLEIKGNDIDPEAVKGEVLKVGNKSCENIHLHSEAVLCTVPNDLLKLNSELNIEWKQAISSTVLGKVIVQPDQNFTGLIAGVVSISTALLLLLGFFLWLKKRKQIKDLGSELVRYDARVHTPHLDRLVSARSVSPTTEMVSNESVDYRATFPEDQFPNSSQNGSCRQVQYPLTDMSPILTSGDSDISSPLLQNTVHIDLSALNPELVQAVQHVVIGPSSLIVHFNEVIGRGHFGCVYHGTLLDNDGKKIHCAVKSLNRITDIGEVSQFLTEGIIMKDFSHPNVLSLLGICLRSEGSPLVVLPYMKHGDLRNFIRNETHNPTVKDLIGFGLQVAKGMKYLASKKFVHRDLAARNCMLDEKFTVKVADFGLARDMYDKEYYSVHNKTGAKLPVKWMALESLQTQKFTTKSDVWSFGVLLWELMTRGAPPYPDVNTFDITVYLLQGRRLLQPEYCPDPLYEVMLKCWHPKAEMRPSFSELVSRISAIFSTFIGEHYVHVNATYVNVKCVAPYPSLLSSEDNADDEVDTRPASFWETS

IC50	SMILES
< 0.1 µM	CCOc1cnc(-c2cccc(Cc3nn(-c4cnn(C5CN(C(=O)OC(C)(C)C)C5)c4)ccc3=O)c2)nc1 [Example 661, tert-butyl 3-(4-{3-[3-(5-ethoxypyrimidin-2-yl)benzyl]-4-oxopyridazin-1(4H)-yl}-1H-pyrazol-1-yl)acetidine-1-carboxylate]
0.1 to 1 µM	CCOc1cnc(-c2cccc(Cc3nn(-c4cnn(CC(=O)N(C)C)c4)ccc3=O)c2)nc1 [Example 662, 2-(4-{3-[3-(5-ethoxypyrimidin-2-yl)benzyl]-4-oxopyridazin-1(4H)-yl}-1H-pyrazol-1-yl)-N,N-dimethylacetamide]
< 0.1 µM	CCOc1cnc(-c2cccc(Cc3nn(-c4cnn(C5CNC5)c4)ccc3=O)c2)nc1 [Example 663, 1-(1-Azetidin-3-yl-1H-pyrazol-4-yl)-3-[3-(5-ethoxypyrimidin-2-yl)benzyl]pyridazin-4(1H)-one]
< 0.1 µM	CCOc1cnc(-c2cccc(Cc3nn(-c4cnn(C5CCNCC5)c4)ccc3=O)c2)nc1 [Example 664, 3-[3-(5-ethoxypyrimidin-2-yl)benzyl]-1-(1-piperidin-4-yl-1H-pyrazol-4-yl)pyridazin-4(1H)-one]
< 0.1 µM	CCOc1cnc(-c2cccc(Cc3nn(-c4cnn(CC(C)(C)O)c4)ccc3=O)c2)nc1 [Example 666, 3-[3-(5-Ethoxypyrimidin-2-yl)benzyl]-1-[1-(2-hydroxy-2-methylpropyl)-1H-pyrazol-4-yl]pyridazin-4(1H)-one]
0.1 to 1 µM	CC(C)COC(=O)Nc1cccc(Cc2nn(-c3cnn(CCCN(C)C)c3)ccc2=O)c1 [Example 667, 2-Methylpropyl {3-[(1-{1-[3-(dimethylamino)propyl]-1H-pyrazol-4-yl}-4-exo-1,4-dihydropyridazin-3-yl)methyl]phenyl}carbamate]
0.1 to 1 µM	CCOc1cnc(-c2cccc(Cc3nn(-c4cnn(C5CN(C)C5)c4)ccc3=O)c2)nc1 [Example 668, 3-[3-(5-Ethoxypyrimidin-2-yl)benzyl]-1-[1-(1-methylazetidin-3-yl)-1H-pyrazol-4-yl]pyridazin-4(1H)-one]
0.1 to 1 µM	O=c1ccn(-c2ccccc2)nc1Cc1cccc(-c2ncccn2)c1 [Example 669, 1-Phenyl-3-[3-(pyrimidin-2-yl)benzyl]pyridazin-4(1H)-one]
0.1 to 1 µM	Cn1cnc(-c2cccc(Cc3nn(-c4ccccc4)ccc3=O)c2)n1 [Example 670, 3-[3-(1-Methyl-1H-1,2,4-triazol-3-yl)benzyl]-1-phenylpyridazin-4(1H)-one]
1 to 3 µM	O=c1ccn(-c2ccccc2)nc1Cc1cccc(-c2ccccn2)c1 [Example 671, 1-phenyl-3-(3-pyridin-2-ylbenzyl) pyridazin-4(1H)-one]
1 to 3 µM	Cc1cnc(-c2cccc(Cc3nn(-c4cnn(C)c4)ccc3=O)c2)[nH]1 [Example 672, 3-[3-(5-Methyl-1H-imidazol-2-yl)benzyl]-1-(1-methyl-1H-pyrazol-4-yl)pyridazin-4(1H)-one]
0.1 to 1 µM	Cn1cnc(-c2cccc(Cc3nn(-c4cnn(C)c4)ccc3=O)c2)c1 [Example 673, 3-[3-(1-methyl-1H-imidazol-4-yl)benzyl]-1-(1-methyl-1H-pyrazol-4-yl)pyridazin-4(1H)-one]
1 to 3 µM	CCOC(=O)c1coc(-c2cccc(Cc3nn(-c4cnn(C)c4)ccc3=O)c2)n1 [Example 674, ethyl 2-(3-{[1-(1-methyl-1H-pyrazol-4-yl)-4-oxo-1,4-dihydropyridazin-3-yl]methyl}phenyl)-1,3-oxazole-4-carboxylate]
0.1 to 1 µM	CCOC(=O)c1cnc(-c2cccc(Cc3nn(-c4cnn(C)c4)ccc3=O)c2)o1 [Example 675, ethyl 2-(3-{[1-(1-methyl-1H-pyrazol-4-yl)-4-oxo-1,4-dihydropyridazin-3-yl]methyl}phenyl)-1,3-oxazole-5-carboxylate]
0.1 to 1 µM	Cn1cc(-n2ccc(=O)c(Cc3cccc(-c4ncc(CO)s4)c3)n2)cn1 [Example 676, 3-{3-[5-(hydroxymethyl)-1,3-thiazol-2-yl]benzyl}-1-(1-methyl-1H-pyrazol-4-yl)pyridazin-4(1H)-one]
< 0.1 µM	CCOc1ccc(-c2cccc(Cc3nn(-c4cnn(C)c4)ccc3=O)c2)nc1 [Example 677]
< 0.1 µM	CC(C)COC(=O)Nc1cccc(Cc2nn(-c3cnn(CCCC(=O)N(C)C)c3)ccc2=O)c1 [Example 696, 2-Methylpropyl {3-[(1-{1-[4-(dimethylamino)-4-oxobutyl]-1H-pyrazol-4-yl}-4-oxo-1,4-dihydropyridazin-3-yl)methyl]phenyl}carbamate]

IC50	SMILES
< 0.1 µM	CNC(=O)CCCn1cc(-n2ccc(=O)c(Cc3cccc(NC(=O)OCC(C)C)c3)n2)cn1 [Example 697, 2-methylpropyl {3-[(1-{1-[4-(methylamino)-4-oxobutyl]-1H-pyrazol-4-yl}-4-oxo-1,4-dihydropyridazin-3-yl)methyl]phenyl} carbamate]
< 0.1 µM	CC(C)COC(=O)Nc1cccc(Cc2nn(-c3cnn(CCCC(=O)N4CCOCC4)c3)ccc2=O)c1 [Example 698, 2-methylpropyl [3-({1-[1-(4-morpholin-4-yl-4-oxobutyl)-1H-pyrazol-4-yl]-4-foundoxo-1,4-dihydropyridazin-3-yl}methyl)phenyl] carbamate]
< 0.1 µM	CC(C)COC(=O)Nc1cccc(Cc2nn(-c3cnn(CCCC(=O)N4CCCCC4)c3)ccc2=O)c1 [Example 699, 2-methylpropyl [3-({4-oxo-1-[1-(4-oxo-4-piperidin-1-ylbutyl)-1H-pyrazol-4-yl]-1,4-dihydropyridazin-3-yl}methyl)phenyl] carbamate]
< 0.1 µM	CC(C)COC(=O)Nc1cccc(Cc2nn(-c3cnn(CCCC(=O)N4CCCC4)c3)ccc2=O)c1 [Example 700, 2-methylpropyl [3-({4-oxo-1-[1-(4-oxo-4-pyrrolidin-1-ylbutyl)-1H-pyrazol-4-yl]-1,4-dihydropyridazin-3-yl}methyl)phenyl] carbamate]
< 0.1 µM	CC(C)COC(=O)Nc1cccc(Cc2nn(-c3cnn(CCCC(=O)NC4COC4)c3)ccc2=O)c1 [Example 701, 2-methylpropyl {3-[(1-{1-[4-(oxetan-3-ylamino)-4-oxobutyl]-1H-pyrazol-4-yl}-4-oxo-1,4-dihydropyridazin-3-yl)methyl]phenyl} carbamate]
< 0.1 µM	CNC(=O)CCn1cc(-n2ccc(=O)c(Cc3cccc(NC(=O)OCC(C)C)c3)n2)cn1 [Example 702, 2-methylpropyl {3-[(1-{1-[3-(methylamino)-3-oxopropyl]-1H-pyrazol-4-yl}-4-oxo-1,4-dihydropyridazin-3-yl)methyl]phenyl} carbamate]
< 0.1 µM	CC(C)COC(=O)Nc1cccc(Cc2nn(-c3cnn(CCC(=O)N4CCOCC4)c3)ccc2=O)c1 [Example 703, 2-methylpropyl [3-({1-[1-(3-morpholin-4-yl-3-oxopropyl-1H-pyrazol-4-yl]-4-oxo-1,4-dihydropyridazin-3-yl}methyl)phenyl] carbamate]
< 0.1 µM	CC(C)COC(=O)Nc1cccc(Cc2nn(-c3cnn(CCC(=O)NC4COC4)c3)ccc2=O)c1 [Example 704, 2-methylpropyl {3-[(1-{1-[3-(oxetan-3-ylamino)-3-oxopropyl]-1H-pyrazol-4-yl}-4-oxo-1,4-dihydropyridazin-3-yl)methyl]phenyl} carbamate]
< 0.1 µM	CC(C)COC(=O)Nc1cccc(Cc2nn(-c3cnn(CCCC(=O)NCC(C)(C)O)c3)ccc2=O)c1 [Example 705, 2-methylpropyl (3-{[1-(1-{4-[(2-hydroxy-2-methylpropyl)amino]-4-oxobutyl}-1H-pyrazol-4-yl)-4-oxo-1,4-dihydropyridazin-3-yl]methyl}phenyl) carbamate]
0.1 to 1 µM	Cn1cc(-n2ccc(=O)c(Cc3cccc(-c4ncn(C5COC5)n4)c3)n2)cn1 [Example 707, 1-(1-Methyl-1H-pyrazol-4-yl)-3-{3-[1-(oxetan-3-yl)-1H-1,2,4-triazol-3-yl]benzyl}pyridazin-4(1H)-one]
< 0.1 µM	CCn1cnc(-c2cccc(Cc3nn(-c4cnn(C)c4)ccc3=O)c2)n1 [Example 708, 3-[3-(1-ethyl-1H-1,2,4-triazol-3-yl)benzyl]-1-(1-methyl-1H-pyrazol-4-yl)pyridazin-4(1H)-one]
0.1 to 1 µM	Cn1cc(-n2ccc(=O)c(Cc3cccc(-c4ncn(CCC#N)n4)c3)n2)cn1 [Example 709, 3-[3-(3-{[1-(1-methyl-1H-pyrazol-4-yl)-4-oxo-1,4-dihydropyridazin-3-yl]methyl}phenyl)-1H-1,2,4-triazol-1-yl]propanenitrile]
0.1 to 1 µM	CN(C)C(=O)CCn1cnc(-c2cccc(Cc3nn(-c4cnn(C)c4)ccc3=O)c2)n1 [Example 710, N,N-dimethyl-3-[3-(3-{[1-(1-methyl-1H-pyrazol-4-yl)-4-oxo-1,4-dihydropyridazin-3-yl]methyl}phenyl)-1H-1,2,4-triazol-1-yl]propanamide]
< 0.1 µM	Cn1cc(-n2ccc(=O)c(Cc3cccc(-c4ncn(CC(F)(F)CN5CCOCC5)n4)c3)n2)cn1 [Example 712, 3-{3-[1-(2,2-difluoro-3-morpholin-4-ylpropyl)-1H-1,2,4-triazol-3-yl]benzyl}-1-(1-methyl-1H-pyrazol-4-yl)pyridazin-4(1H)-one]
0.1 to 1 µM	Cn1cc(-n2ccc(=O)c(Cc3cccc(-c4ncn(CC5(C)COC5)n4)c3)n2)cn1 [Example 713, 3-(3-{1-[(3-methyloxetan-3-yl)methyl]-1H-1,2,4-triazol-3-yl}benzyl)-1-(1-methyl-1H-pyrazol-4-yl)pyridazin 4(1H)-one]
0.1 to 1 µM	Cn1cc(-n2ccc(=O)c(Cc3cccc(-c4ncn(CCS(C)(=O)=O)n4)c3)n2)cn1 [Example 714, 1-(1-methyl-1H-pyrazol-4-yl)-3-(3-{1-[2-(methylsulfonyl)ethyl]-1H-1,2,4-triazol-3-yl}benzyl)pyridazin-4(1H)-one]
0.1 to 1 µM	Cn1cc(-n2ccc(=O)c(Cc3cccc(-c4ncn(CCc5ccccc5)n4)c3)n2)cn1 [Example 715, 1-(1-methyl-1H-pyrazol-4-yl)-3-{3-[1-(2-phenylethyl)-1H-1,2,4-triazol-3-yl]benzyl}pyridazin-4(1H)-one]
